Like-named read-outs stand apart in the source and are kept apart here.
Tests used:
[1] = system: N87 (gastric cancer) cells; assay: In vitro cell assay (MTS cell viability), N87; format: cell-based; details: free compounds (natural products and synthetic analogs), cell viability 96 hours after treatment
Outline: (§1)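 Cells seeded 24 h, then treated with antibody-drug conjugates or free drug, 3-fold serial dilutions at 10 concentrations in duplicate. Viability by MTS at 96 h as percent of untreated control; IC50 from four-parameter logistic fit.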

[2] = system: BT474 (breast cancer) cells; assay: In vitro cell assay (MTS cell viability), BT474; format: cell-based; details: Homo sapiens, BT-474; free compounds (natural products and synthetic analogs); cell viability 96 hours after treatment
Outline: as §1

[3] = system: MDA-MB-361-DYT2 (breast cancer) cells; assay: In vitro cell assay (MTS cell viability), MDA-MB-361-DYT2; format: cell-based; details: free compounds (natural products and synthetic analogs), cell viability 96 hours after treatment
Outline: as §1

[4] = system: MDA-MB-468 cells (target non-expressing); assay: In vitro cell assay (MTS cell viability), MDA-MB-468; format: cell-based; details: Homo sapiens
Description: Target expressing (BT474 (breast cancer), N87 (gastric cancer), HCC1954 (breast cancer), MDA-MB-361-DYT2 (breast cancer)) or non-expressing (MDA-MB-468) cells were seeded in 96-well cell culture plates for 24 hours before treatment. Cells were treated with 3-fold serially diluted antibody-drug conjugates or free compounds (i.e., no antibody conjugated to the drug) in duplicate at 10 concentrations. Cell viability was determined by CellTiter 96® AQueous One Solution Cell Proliferation MTS Assay (Promega, Madison Wis.) 96 hours after treatment. Relative cell viability was determined as percentage of untreated control. IC50 values were calculated using a four parameter logistic model #203 with XLfit v4.2 (IDBS, Guildford, Surry, UK). The potency ranged upward from 0.0002 nm. Similar procedures and techniques were employed.

human cancer cell lines = details: Journal of Antibiotics (1996), 49(12), 1204-1211; cited from earlier work
xenograft tumor models = details: Journal of Antibiotics (1996), 49(12), 1204-1211; cited from earlier work
[5] = system: spliceosome (SF3b, component of the subcomplex U2 snRNA); details: Nature Chemical Biology (2007), 3(9), 576-583; Nature (2010), 468(7324), 664-668; cited from earlier work
[6] = MDA-MB-468, 96 h, read-out: MDA-MB-468 IC50 (nM)

Molecule | IC50 ([1]; 96 h) | IC50 [2] | IC50 ([3]; 96 h) | IC50 [4, 6] | other results
CC(=O)O[C@@H](C)/C=C\C(=O)N[C@@H]1C[C@H](C)[C@H](C/C=C(C)/C=C/[C@@H]2C[C@]3(CO3)C[C@@H](CC(N)=O)O2)O[C@@H]1C [#B15, (2S,3Z)-5-{[(2R,3R,5S,6S)-6-{(2E,4E)-5-[(3S,5S,7S)-7-(2-amino-2-oxoethyl)-1,6-dioxaspiro[2.5]oct-5-yl]-3-methylpenta-2,4-dien-1-yl}-2,5-dimethyltetrahydro-2H-pyran-3-yl]amino}-5-oxopent-3-en-2-yl acetate] | 0.203 nM | 0.522 nM | 0.537 nM | 0.363 nM | 
CC(/C=C/[C@@H]1C[C@]2(CO2)C[C@@H](CC(=O)O)O1)=C\C[C@@H]1O[C@H](C)[C@H](NC(=O)/C=C\[C@H](C)O)C[C@@H]1C [#B16, [(3S,5S,7S)-7-{(1E,3E)-5-[(2S,3S,5R,6R)-5-{[(2Z,4S)-4-hydroxypent-2-enoyl]amino}-3,6-dimethyltetrahydro-2H-pyran-2-yl]-3-methylpenta-1,3-dien-1-yl}-1,6-dioxaspiro[2.5]oct-5-yl]acetic acid] | 16.8 nM | 76.1 nM | > 100 nM | 36.8 nM | 
CCCNC(=O)C[C@@H]1C[C@@]2(CO2)[C@H](O)[C@@H](/C=C/C(C)=C/C[C@@H]2O[C@H](C)[C@H](NC(=O)/C=C\[C@H](C)OC(C)=O)C[C@@H]2C)O1 [#B63, (2S,3Z)-5-({(2R,3R,5S,6S)-6-[(2E,4E)-5-{(3R,4R,5R,7S)-4-hydroxy-7-[2-oxo-2-(propylamino)ethyl]-1,6-dioxaspiro[2.5]oct-5-yl}-3-methylpenta-2,4-dien-1-yl]-2,5-dimethyltetrahydro-2H-pyran-3-yl}amino)-5-oxopent-3-en-2-yl acetate] | 1.1 nM | 0.651 nM | 0.293 nM | 0.348 nM | 
CC(=O)O[C@@H](C)/C=C\C(=O)N[C@@H]1C[C@H](C)[C@H](C/C=C(C)/C=C/[C@H]2O[C@H](CC(=O)N[C@H]3C[C@H](N)C3)C[C@@]3(CO3)[C@@H]2O)O[C@@H]1C [#B73, (2S,3Z)-5-{[(2R,3R,5S,6S)-6-{(2E,4E)-5-[(3R,4R,5R,7S)-7-{2-[(trans-3-aminocyclobutyl)amino]-2-oxoethyl}-4-hydroxy-1,6-dioxaspiro[2.5]oct-5-yl]-3-methylpenta-2,4-dien-1-yl}-2,5-dimethyltetrahydro-2H-pyran-3-yl]amino}-5-oxopent-3-en-2-yl acetate] | 174 nM | 296 nM | 443 nM | 276 nM | 
CC(=O)O[C@@H](C)/C=C\C(=O)N[C@@H]1C[C@H](C)[C@H](C/C=C(C)/C=C/[C@H]2O[C@H](CC(=O)N[C@H]3CC[C@H](N)CC3)C[C@@]3(CO3)[C@@H]2O)O[C@@H]1C [#B76, (2S,3Z)-5-{[(2R,3R,5S,6S)-6-{(2E,4E)-5-[(3R,4R,5R,7S)-7-{2-[(trans-4-aminocyclohexyl)amino]-2-oxoethyl}-4-hydroxy-1,6-dioxaspiro[2.5]oct-5-yl]-3-methylpenta-2,4-dien-1-yl}-2,5-dimethyltetrahydro-2H-pyran-3-yl]amino}-5-oxopent-3-en-2-yl acetate] | 331 nM | 341 nM | 885 nM | 272 nM | 
CCCNC(=O)C(C)(C)NC(=O)C[C@@H]1C[C@@]2(CO2)[C@H](O)[C@@H](/C=C/C(C)=C/C[C@@H]2O[C@H](C)[C@H](NC(=O)/C=C\[C@H](C)OC(C)=O)C[C@@H]2C)O1 [#B81, (2S,3Z)-5-{[(2R,3R,5S,6S)-6-{(2E,4E)-5-[(3R,4R,5R,7S)-4-hydroxy-7-(2-{[2-methyl-1-oxo-1-(propylamino)propan-2-yl]amino}-2-oxoethyl)-1,6-dioxaspiro[2.5]oct-5-yl]-3-methylpenta-2,4-dien-1-yl}-2,5-dimethyltetrahydro-2H-pyran-3-yl]amino}-5-oxopent-3-en-2-yl acetate] | 70.7 nM | > 100 nM | > 100 nM | > 100 nM | 
COC(=O)C[C@@H]1C[C@@]2(CO2)C[C@@H](/C=C/C(C)=C/C[C@@H]2O[C@H](C)[C@H](NC(=O)/C=C\[C@H](C)O)C[C@@H]2C)O1 [#B148, methyl [(3S,5S,7S)-7-{(1E,3E)-5-[(2S,3S,5R,6R)-5-{[(2Z,4S)-4-hydroxypent-2-enoyl]amino}-3,6-dimethyltetrahydro-2H-pyran-2-yl]-3-methylpenta-1,3-dien-1-yl}-1,6-dioxaspiro[2.5]oct-5-yl]acetate] | 47.4 nM | 40.8 nM | > 100 nM | 64.4 nM | 
CCCC(=O)NC[C@@H]1C[C@@]2(CO2)C[C@@H](/C=C/C(C)=C/C[C@@H]2O[C@H](C)[C@H](NC(=O)/C=C\[C@H](C)OC(C)=O)C[C@@H]2C)O1 [#B173, (2S,3Z)-5-({(2R,3R,5S,6S)-6-[(2E,4E)-5-{(3R,5S,7S)-7-[(butanoylamino)methyl]-1,6-dioxaspiro[2.5]oct-5-yl}-3-methylpenta-2,4-dien-1-yl]-2,5-dimethyltetrahydro-2H-pyran-3-yl}amino)-5-oxopent-3-en-2-yl acetate] | 6.38 nM | 3.64 nM | 29.1 nM | 7.85 nM | 
CC(=O)O[C@@H](C)/C=C\C(=O)N[C@@H]1C[C@H](C)[C@H](C/C=C(C)/C=C/[C@H]2O[C@H](CC(=O)O)C[C@@]3(CO3)[C@@H]2O)O[C@@H]1C [#NP1, [(3R,5S,7R,8R)-7-{(1E,3E)-5-[(2S,3S,5R,6R)-5-{[(2Z,4S)-4-(acetyloxy)pent-2-enoyl]amino}-3,6-dimethyltetrahydro-2H-pyran-2-yl]-3-methylpenta-1,3-dien-1-yl}-8-hydroxy-1,6-dioxaspiro[2.5]oct-5-yl]acetic Acid] | 61.6 nM | 145 nM | 160 nM | 142 nM | 
CC(=O)O[C@@H](C)/C=C\C(=O)N[C@@H]1C[C@H](C)[C@H](C/C=C(C)/C=C/[C@@H]2C[C@]3(CO3)C[C@@H](CC(=O)O)O2)O[C@@H]1C [#NP2, [(3S,5S,7S)-7-{(1E,3E)-5-[(2S,3S,5R,6R)-5-{[(2Z,4S)-4-(acetyloxy)pent-2-enoyl]amino}-3,6-dimethyltetrahydro-2H-pyran-2-yl]-3-methylpenta-1,3-dien-1-yl}-1,6-dioxaspiro[2.5]oct-5-yl]acetic acid] |  | 5.12 nM |  |  | IC50 [1]: 2.51 nM; IC50 [3]: 8.5 nM; IC50 ([4]; MDA-MB-468, free compounds (natural products and synthetic analogs), cell viability 96 hours after treatment, read-out: MDA-MB-468 IC50): 3.39 nM
CC(=O)O[C@@H](C)/C=C\C(=O)N[C@@H]1C[C@H](C)[C@H](C/C=C(C)/C=C/[C@@H]2CC(C)=CC(=O)O2)O[C@@H]1C [#NP11, (2S,3Z)-5-{[(2R,3R,5S,6S)-2,5-dimethyl-6-{(2E,4E)-3-methyl-5-[(2S)-4-methyl-6-oxo-3,6-dihydro-2H-pyran-2-yl]penta-2,4-dien-1-yl}tetrahydro-2H-pyran-3-yl]amino}-5-oxopent-3-en-2-yl acetate] | 3.67 nM | 3.72 nM | 4.16 nM | 1.55 nM | 
CC(=O)O[C@@H](C)/C=C\C(=O)N[C@@H]1C[C@H](C)[C@H](C/C=C(C)/C=C/[C@H]2O[C@](C)(O)C[C@@](O)(CCl)[C@@H]2O)O[C@@H]1C [FR901463] |  |  |  |  | inhibitory activities against human cancer cell lines (human cancer cell lines): potent inhibitory activities; efficacies in xenograft tumor models (xenograft tumor models): efficacies in several xenograft tumor models
CC(=O)O[C@@H](C)/C=C\C(=O)N[C@@H]1C[C@H](C)[C@H](C/C=C(C)/C=C/[C@H]2O[C@](C)(O)C[C@@]3(CO3)[C@@H]2O)O[C@@H]1C [FR901464] |  |  |  |  | inhibitory activities against human cancer cell lines (human cancer cell lines): potent inhibitory activities; efficacies in xenograft tumor models (xenograft tumor models): efficacies in several xenograft tumor models; inhibition of the spliceosome [5]: inhibit the spliceosome by interaction with SF3b
CO[C@]1(C)C[C@@]2(CO2)[C@H](O)[C@@H](/C=C/C(C)=C/C[C@@H]2O[C@H](C)[C@H](NC(=O)/C=C\[C@H](C)OC(C)=O)C[C@@H]2C)O1 [spliceostatin A] |  |  |  |  | inhibition of the spliceosome [5]: inhibit the spliceosome by interaction with SF3b
FR901465 |  |  |  |  | inhibitory activities against human cancer cell lines (human cancer cell lines): potent inhibitory activities; efficacies in xenograft tumor models (xenograft tumor models): efficacies in several xenograft tumor models
